Tests used:
[1] = molecular target: T1, Sodium-dependent dopamine transporter (Homo sapiens, UniProt Q01959); conditions: Compound concentration 10.0 uM
[2] = molecular target: 5-hydroxytryptamine receptor 2C (Homo sapiens) (UniProt P28335); conditions: Compound concentration 10.0 uM
[3] = molecular target: Kappa-type opioid receptor (Homo sapiens, UniProt P41145); conditions: Compound concentration 10.0 uM
[4] = molecular target: Glutamate receptor ionotropic, NMDA 2A (Homo sapiens, UniProt Q05586+Q12879); experiment: GluN2A-containing NMDA receptor (Ca2+ influx) assay (EC50)
[5] = molecular target: 5-hydroxytryptamine receptor 2A (Homo sapiens, UniProt P28223); conditions: Compound concentration 10.0 uM
[6] = molecular target: Muscarinic acetylcholine receptor M1 (Homo sapiens) (UniProt P11229); conditions: Compound concentration 10.0 uM
[7] = molecular target: Sodium-dependent noradrenaline transporter (Homo sapiens, UniProt P23975); conditions: Compound concentration 10.0 uM
[8] = molecular target: Alpha-1B adrenergic receptor (Homo sapiens) (UniProt P35368); conditions: Compound concentration 10.0 uM
[9] = molecular target: D(3) dopamine receptor (Homo sapiens) (UniProt P35462); conditions: Compound concentration 10.0 uM
[10] = molecular target: Delta-type opioid receptor (Homo sapiens, UniProt P41143); conditions: Compound concentration 10.0 uM
[11] = molecular target: 5-hydroxytryptamine receptor 5A (Homo sapiens) (UniProt P47898); conditions: Compound concentration 10.0 uM
[12] = molecular target: Histamine H3 receptor (Homo sapiens) (UniProt Q9Y5N1); conditions: Compound concentration 10.0 uM
D(2) dopamine receptor = D(2) dopamine receptor (Homo sapiens, UniProt P14416); conditions: Compound concentration 10.0 uM
[13] = molecular target: Muscarinic acetylcholine receptor M4 (Homo sapiens) (UniProt P08173); conditions: Compound concentration 10.0 uM
[14] = AMPA receptor scintillation proximity binding assay; design: species or system Homo sapiens
[15] = molecular target: 5-hydroxytryptamine receptor 1A (Homo sapiens) (UniProt P08908); conditions: Compound concentration 10.0 uM
[16] = molecular target: 5-hydroxytryptamine receptor 2B (Homo sapiens, UniProt P41595); conditions: Compound concentration 10.0 uM
[17] = molecular target: Sigma non-opioid intracellular receptor 1 (Homo sapiens) (UniProt Q99720); conditions: Compound concentration 10.0 uM
[18] = molecular target: 5-hydroxytryptamine receptor 3A (Homo sapiens) (UniProt P46098); conditions: Compound concentration 10.0 uM
[19] = molecular target: Beta-1 adrenergic receptor (Homo sapiens, UniProt P08588); conditions: Compound concentration 10.0 uM
[20] = molecular target: Sodium-dependent serotonin transporter (Homo sapiens, UniProt P31645); conditions: Compound concentration 10.0 uM
Mu-type opioid receptor = Mu-type opioid receptor (Homo sapiens, UniProt P35372); conditions: Compound concentration 10.0 uM
Rattus norvegicus = organism: Rattus norvegicus; conditions: Compound concentration 10.0 uM
Histamine H1 receptor = Histamine H1 receptor (Homo sapiens, UniProt P35367); conditions: Compound concentration 10.0 uM
[21] = molecular target: 5-hydroxytryptamine receptor 1B (Homo sapiens, UniProt P28222); conditions: Compound concentration 10.0 uM
[22] = molecular target: GABA-A receptor; anion channel (Rattus norvegicus) (UniProt O09028+P15431+P18506+P18508+P19969+P20236+P23574+P23576+P28471+P28473+P30191+P62813+P63079+P63138+Q91ZM7+Q9ES14); conditions: Compound concentration 10.0 uM
[23] = molecular target: Alpha-2A adrenergic receptor (Homo sapiens) (UniProt P08913); conditions: Compound concentration 10.0 uM
[24] = molecular target: Beta-3 adrenergic receptor (Homo sapiens) (UniProt P13945); conditions: Compound concentration 10.0 uM
[25] = molecular target: D(4) dopamine receptor (Homo sapiens) (UniProt P21917); conditions: Compound concentration 10.0 uM
[26] = molecular target: Alpha-2C adrenergic receptor (Homo sapiens) (UniProt P18825); conditions: Compound concentration 10.0 uM
[27] = molecular target: 5-hydroxytryptamine receptor 1D (Homo sapiens, UniProt P28221); conditions: Compound concentration 10.0 uM
[28] = molecular target: 5-hydroxytryptamine receptor 1E (Homo sapiens) (UniProt P28566); conditions: Compound concentration 10.0 uM
Histamine H2 receptor = Histamine H2 receptor (Homo sapiens, UniProt P25021); conditions: Compound concentration 10.0 uM
[29] = molecular target: Sigma intracellular receptor 2 (Homo sapiens) (UniProt Q5BJF2); conditions: Compound concentration 10.0 uM
[30] = molecular target: 5-hydroxytryptamine receptor 6 (Homo sapiens) (UniProt P50406); conditions: Compound concentration 10.0 uM
[31] = molecular target: Alpha-2B adrenergic receptor (Homo sapiens) (UniProt P18089); conditions: Compound concentration 10.0 uM
[32] = molecular target: T1, Sodium-dependent dopamine transporter; experiment: GPCRScan assay: inhibition of DAT; design: radioligand conc. used [nm] 3.6 – 16.0, parental cells stable HEK
D(1A) dopamine receptor = D(1A) dopamine receptor (Homo sapiens, UniProt P21728); conditions: Compound concentration 10.0 uM
[33] = molecular target: Alpha-1D adrenergic receptor (Homo sapiens) (UniProt P25100); conditions: Compound concentration 10.0 uM
[34] = molecular target: Histamine H4 receptor (Homo sapiens) (UniProt Q9H3N8); conditions: Compound concentration 10.0 uM

T1 sequence (Q01959 whole entry): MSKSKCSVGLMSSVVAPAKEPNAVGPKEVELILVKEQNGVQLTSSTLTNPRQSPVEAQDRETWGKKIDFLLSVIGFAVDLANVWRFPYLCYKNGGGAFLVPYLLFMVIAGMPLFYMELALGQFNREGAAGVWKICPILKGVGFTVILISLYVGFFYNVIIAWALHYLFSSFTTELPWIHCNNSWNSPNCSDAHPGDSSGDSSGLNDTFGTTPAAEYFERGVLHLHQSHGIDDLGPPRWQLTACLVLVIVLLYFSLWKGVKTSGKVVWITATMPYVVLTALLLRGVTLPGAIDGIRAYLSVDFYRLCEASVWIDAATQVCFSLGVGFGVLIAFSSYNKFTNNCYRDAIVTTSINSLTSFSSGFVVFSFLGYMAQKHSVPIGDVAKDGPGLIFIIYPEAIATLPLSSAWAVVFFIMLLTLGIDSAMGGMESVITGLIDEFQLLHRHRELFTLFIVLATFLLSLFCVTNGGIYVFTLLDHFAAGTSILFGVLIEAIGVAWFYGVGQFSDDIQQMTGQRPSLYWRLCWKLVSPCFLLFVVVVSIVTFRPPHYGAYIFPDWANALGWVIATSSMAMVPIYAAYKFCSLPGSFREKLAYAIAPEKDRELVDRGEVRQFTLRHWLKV
Histamine H2 receptor, sequence (P25021 whole entry): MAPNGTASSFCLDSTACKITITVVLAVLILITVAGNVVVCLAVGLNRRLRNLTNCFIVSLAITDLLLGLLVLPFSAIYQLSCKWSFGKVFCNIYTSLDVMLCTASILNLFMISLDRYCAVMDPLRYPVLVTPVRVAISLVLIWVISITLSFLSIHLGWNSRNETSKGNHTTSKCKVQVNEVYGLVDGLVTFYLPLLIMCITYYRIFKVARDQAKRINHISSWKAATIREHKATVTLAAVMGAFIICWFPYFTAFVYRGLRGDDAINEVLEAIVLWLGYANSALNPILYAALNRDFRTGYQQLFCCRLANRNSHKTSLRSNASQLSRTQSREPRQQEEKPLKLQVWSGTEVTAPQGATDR
5-hydroxytryptamine receptor 1B, sequence (P28222 whole entry): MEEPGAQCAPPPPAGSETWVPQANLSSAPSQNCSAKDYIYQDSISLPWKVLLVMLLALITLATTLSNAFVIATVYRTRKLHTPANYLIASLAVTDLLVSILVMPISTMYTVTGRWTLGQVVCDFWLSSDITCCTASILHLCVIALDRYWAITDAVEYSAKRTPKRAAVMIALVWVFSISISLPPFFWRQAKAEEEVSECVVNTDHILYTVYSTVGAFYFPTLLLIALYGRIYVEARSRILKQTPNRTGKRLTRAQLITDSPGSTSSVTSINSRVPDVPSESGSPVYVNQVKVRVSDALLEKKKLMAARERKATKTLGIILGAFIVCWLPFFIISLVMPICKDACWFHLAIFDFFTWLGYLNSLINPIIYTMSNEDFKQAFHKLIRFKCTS
Histamine H1 receptor, sequence (P35367 whole entry): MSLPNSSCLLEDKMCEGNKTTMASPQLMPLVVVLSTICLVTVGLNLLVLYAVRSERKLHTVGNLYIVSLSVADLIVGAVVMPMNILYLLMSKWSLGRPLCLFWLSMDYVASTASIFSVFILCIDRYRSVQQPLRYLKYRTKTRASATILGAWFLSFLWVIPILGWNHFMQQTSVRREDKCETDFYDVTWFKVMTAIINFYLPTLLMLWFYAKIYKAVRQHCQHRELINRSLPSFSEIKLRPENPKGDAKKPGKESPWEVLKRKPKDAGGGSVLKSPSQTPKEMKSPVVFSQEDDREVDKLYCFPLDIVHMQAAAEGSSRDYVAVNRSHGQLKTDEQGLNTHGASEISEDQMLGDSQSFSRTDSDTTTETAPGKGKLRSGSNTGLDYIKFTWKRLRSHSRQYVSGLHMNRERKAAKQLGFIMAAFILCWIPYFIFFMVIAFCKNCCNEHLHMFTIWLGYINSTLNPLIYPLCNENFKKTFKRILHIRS
D(4) dopamine receptor (Homo sapiens), sequence (P21917 whole entry): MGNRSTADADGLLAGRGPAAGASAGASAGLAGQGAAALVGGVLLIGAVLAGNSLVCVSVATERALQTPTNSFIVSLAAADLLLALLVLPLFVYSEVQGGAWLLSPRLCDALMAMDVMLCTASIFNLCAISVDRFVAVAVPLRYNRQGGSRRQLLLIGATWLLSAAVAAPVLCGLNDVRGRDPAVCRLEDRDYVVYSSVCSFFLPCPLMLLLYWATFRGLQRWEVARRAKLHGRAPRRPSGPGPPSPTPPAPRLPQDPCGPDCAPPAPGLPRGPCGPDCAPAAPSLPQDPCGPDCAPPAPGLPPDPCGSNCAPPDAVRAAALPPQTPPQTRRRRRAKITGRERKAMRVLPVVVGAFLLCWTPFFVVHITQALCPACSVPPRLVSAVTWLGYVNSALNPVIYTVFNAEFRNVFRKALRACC
Kappa-type opioid receptor, sequence (P41145 whole entry): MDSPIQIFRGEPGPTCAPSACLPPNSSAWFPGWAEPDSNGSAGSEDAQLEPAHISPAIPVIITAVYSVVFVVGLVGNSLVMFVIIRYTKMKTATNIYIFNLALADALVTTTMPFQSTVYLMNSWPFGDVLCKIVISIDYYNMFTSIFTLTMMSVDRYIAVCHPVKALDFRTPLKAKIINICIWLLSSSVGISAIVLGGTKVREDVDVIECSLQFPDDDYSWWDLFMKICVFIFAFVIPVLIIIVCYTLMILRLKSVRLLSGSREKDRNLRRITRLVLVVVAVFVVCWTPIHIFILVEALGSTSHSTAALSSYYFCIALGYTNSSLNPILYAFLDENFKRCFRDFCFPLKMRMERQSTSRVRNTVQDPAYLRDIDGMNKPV
Delta-type opioid receptor, sequence (P41143 whole entry): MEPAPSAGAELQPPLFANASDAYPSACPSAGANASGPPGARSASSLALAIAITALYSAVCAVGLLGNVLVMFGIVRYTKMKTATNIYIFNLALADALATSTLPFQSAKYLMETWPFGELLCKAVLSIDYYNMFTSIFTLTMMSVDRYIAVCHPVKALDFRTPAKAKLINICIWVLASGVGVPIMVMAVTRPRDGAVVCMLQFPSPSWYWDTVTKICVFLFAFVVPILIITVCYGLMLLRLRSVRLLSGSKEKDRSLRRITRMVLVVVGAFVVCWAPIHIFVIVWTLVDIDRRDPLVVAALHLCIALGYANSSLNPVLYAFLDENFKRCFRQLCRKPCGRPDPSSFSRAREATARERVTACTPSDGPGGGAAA
Alpha-2B adrenergic receptor (Homo sapiens), sequence (P18089 whole entry): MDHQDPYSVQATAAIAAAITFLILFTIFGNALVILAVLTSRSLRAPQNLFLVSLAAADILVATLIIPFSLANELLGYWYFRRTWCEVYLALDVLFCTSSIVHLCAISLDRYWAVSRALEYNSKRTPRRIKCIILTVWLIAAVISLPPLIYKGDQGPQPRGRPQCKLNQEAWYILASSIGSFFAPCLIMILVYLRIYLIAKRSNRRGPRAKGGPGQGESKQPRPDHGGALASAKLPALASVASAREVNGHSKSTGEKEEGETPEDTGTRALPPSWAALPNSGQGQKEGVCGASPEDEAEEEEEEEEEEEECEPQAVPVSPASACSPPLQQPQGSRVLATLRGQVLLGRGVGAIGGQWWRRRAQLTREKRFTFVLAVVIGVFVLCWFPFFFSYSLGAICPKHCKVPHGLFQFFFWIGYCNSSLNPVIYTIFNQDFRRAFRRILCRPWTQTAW
5-hydroxytryptamine receptor 6 (Homo sapiens), sequence (P50406 whole entry): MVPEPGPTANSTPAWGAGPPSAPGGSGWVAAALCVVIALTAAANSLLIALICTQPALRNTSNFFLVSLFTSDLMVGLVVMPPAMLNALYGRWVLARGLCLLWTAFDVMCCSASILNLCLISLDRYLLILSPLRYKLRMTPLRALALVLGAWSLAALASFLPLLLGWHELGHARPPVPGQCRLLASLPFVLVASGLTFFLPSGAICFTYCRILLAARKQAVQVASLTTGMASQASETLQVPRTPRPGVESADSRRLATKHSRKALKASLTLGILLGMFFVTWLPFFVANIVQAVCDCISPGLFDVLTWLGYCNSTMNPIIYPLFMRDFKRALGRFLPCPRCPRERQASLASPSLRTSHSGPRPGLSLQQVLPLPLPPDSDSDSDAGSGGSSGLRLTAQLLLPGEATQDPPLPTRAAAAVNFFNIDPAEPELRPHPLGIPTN
5-hydroxytryptamine receptor 1E (Homo sapiens), sequence (P28566 whole entry): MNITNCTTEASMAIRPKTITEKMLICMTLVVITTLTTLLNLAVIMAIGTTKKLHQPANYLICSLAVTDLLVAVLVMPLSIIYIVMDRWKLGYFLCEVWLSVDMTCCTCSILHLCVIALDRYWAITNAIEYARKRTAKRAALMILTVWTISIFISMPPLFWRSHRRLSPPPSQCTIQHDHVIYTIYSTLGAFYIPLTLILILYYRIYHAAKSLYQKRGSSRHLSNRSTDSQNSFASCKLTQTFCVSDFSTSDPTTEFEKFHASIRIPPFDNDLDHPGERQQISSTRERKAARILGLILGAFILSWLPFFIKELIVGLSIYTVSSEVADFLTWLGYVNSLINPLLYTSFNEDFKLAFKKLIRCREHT
Muscarinic acetylcholine receptor M1 (Homo sapiens), sequence (P11229 whole entry): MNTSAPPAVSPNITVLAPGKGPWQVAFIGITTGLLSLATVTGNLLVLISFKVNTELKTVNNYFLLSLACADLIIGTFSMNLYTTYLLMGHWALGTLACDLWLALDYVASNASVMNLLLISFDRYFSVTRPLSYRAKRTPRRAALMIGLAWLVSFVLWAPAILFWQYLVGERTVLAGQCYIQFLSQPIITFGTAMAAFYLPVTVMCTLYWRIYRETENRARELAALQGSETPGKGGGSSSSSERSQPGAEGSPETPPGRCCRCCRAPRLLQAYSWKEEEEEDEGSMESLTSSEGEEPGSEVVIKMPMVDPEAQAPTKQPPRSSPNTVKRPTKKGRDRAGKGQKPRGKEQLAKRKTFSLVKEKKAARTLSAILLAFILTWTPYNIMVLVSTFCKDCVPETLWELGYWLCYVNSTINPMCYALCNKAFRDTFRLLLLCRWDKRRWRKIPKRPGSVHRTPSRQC
Sigma intracellular receptor 2 (Homo sapiens), sequence (Q5BJF2 whole entry): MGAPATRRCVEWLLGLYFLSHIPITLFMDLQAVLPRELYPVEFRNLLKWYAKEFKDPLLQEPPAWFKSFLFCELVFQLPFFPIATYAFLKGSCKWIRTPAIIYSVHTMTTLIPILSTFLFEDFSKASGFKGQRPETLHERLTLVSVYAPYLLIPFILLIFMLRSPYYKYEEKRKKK

- inhibition [1]: 57.6%
- inhibition [2]: -9.2%
- inhibition [3]: 22.6%
- EC50 [4]: > 30 µM (not active)
- inhibition [5]: -9.06%
- inhibition [6]: -8.98%
- inhibition [7]: -2.17%
- inhibition [8]: 1.49%
- inhibition [9]: 4.06%
- inhibition [10]: -8.09%
- inhibition [11]: -7.46%
- inhibition [12]: -5.14%
- inhibition (D(2) dopamine receptor): 5.88%
- inhibition [13]: -0.32%
- IC50 [14]: > 30 µM (not active)
- inhibition [15]: -6.45%
- inhibition [16]: 12%
- inhibition [17]: 33.4%
- inhibition [18]: -1.27%
- inhibition [19]: -0.27%
- inhibition [20]: 0.68%
- inhibition (Mu-type opioid receptor): -0.1%
- inhibition (Rattus norvegicus): 21.3%
- inhibition (Histamine H1 receptor): -2.74%
- inhibition [21]: 27.7%
- inhibition [22]: 1.81%
- inhibition [23]: 19%
- inhibition [24]: -5.75%
- inhibition [25]: -5.71%
- inhibition [26]: -9.92%
- inhibition [27]: 15.5%
- inhibition [28]: 3.73%
- inhibition (Histamine H2 receptor): 7.11%
- inhibition [29]: 15.8%
- inhibition [30]: -6.08%
- inhibition [31]: 1.85%
- pKi [32]: < 5
- Ki ([32]; read-out: Ki): > 10 µM
- inhibition (D(1A) dopamine receptor): -0.9%
- inhibition [33]: -4.44%
- inhibition [34]: 20.4%
SMILES: Cc1cn([C@@H](C)CC#N)c(=O)c2cc(Cn3nc(C(F)F)cc3Cl)nn12
